Data from ChEMBL document CHEMBL5346921, “Discovery of novel benzamide derivatives bearing benzamidophenyl and phenylacetamidophenyl scaffolds as potential antitumor agents via targeting PARP-1” (Eur J Med Chem, 2023).
Activity calls are given as the source filed them. The rule behind the calls is not given here.

Experiments:
DLD-1 = assay: Antiproliferative activity against human DLD-1 cells assessed as reduction in cell viability incubated for 48 hrs by MTT assay; format: functional, cell-based; conditions: DLD-1, 48 h
HCT-116 [1] = assay: cells; conditions: Homo sapiens, HCT-116, 48 h
[2] = Cytotoxicity against human NCM460 cells assessed as reduction in cell viability incubated for 48 hrs by MTT assay; format: toxicity, cell-based
SW480 = assay: cells; conditions: Homo sapiens, SW480, 48 h
Description: Antiproliferative activity against human SW480 cells assessed as reduction in cell viability incubated for 48 hrs by MTT assay

[3] = Selectivity index, ratio of IC50 for cytotoxicity against human NCM460 cells to IC50 for antiproliferative activity against human HCT-116 cells; format: toxicity, cell-based; conditions: NCM460 cells and HCT-116 cells, read-out: Ratio IC50
HCT-116 [4] = assay: Induction of mitochondrial membrane potential loss in human HCT-116 cells assessed as JC-1 monomer level by measuring green fluorescence intensity at 15 uM incubated for 48 hrs by JC-1 staining based flow cytometry (reference value: 3.28%); format: functional
HCT-116 [5] = assay: Induction of mitochondrial membrane potential loss in human HCT-116 cells assessed as increase in monomer JC-1 level by measuring green fluorescence intensity at 15 uM incubated for 48 hrs by immunofluorescence analysis; format: functional, cell-based
HCT-116 [6] = assay: Induction of mitochondrial membrane potential loss in human HCT-116 cells assessed as JC-1 aggregate level by measuring red fluorescence intensity at 15 uM incubated for 48 hrs by JC-1 staining based flow cytometry (reference value: 96.72%); format: functional
[7] = molecular target: Poly [ADP-ribose] polymerase 1 (Homo sapiens, UniProt P09874); assay: Inhibition of human PARP-1 by ELISA
Poly [ADP-ribose] polymerase 1, sequence (P09874 whole entry): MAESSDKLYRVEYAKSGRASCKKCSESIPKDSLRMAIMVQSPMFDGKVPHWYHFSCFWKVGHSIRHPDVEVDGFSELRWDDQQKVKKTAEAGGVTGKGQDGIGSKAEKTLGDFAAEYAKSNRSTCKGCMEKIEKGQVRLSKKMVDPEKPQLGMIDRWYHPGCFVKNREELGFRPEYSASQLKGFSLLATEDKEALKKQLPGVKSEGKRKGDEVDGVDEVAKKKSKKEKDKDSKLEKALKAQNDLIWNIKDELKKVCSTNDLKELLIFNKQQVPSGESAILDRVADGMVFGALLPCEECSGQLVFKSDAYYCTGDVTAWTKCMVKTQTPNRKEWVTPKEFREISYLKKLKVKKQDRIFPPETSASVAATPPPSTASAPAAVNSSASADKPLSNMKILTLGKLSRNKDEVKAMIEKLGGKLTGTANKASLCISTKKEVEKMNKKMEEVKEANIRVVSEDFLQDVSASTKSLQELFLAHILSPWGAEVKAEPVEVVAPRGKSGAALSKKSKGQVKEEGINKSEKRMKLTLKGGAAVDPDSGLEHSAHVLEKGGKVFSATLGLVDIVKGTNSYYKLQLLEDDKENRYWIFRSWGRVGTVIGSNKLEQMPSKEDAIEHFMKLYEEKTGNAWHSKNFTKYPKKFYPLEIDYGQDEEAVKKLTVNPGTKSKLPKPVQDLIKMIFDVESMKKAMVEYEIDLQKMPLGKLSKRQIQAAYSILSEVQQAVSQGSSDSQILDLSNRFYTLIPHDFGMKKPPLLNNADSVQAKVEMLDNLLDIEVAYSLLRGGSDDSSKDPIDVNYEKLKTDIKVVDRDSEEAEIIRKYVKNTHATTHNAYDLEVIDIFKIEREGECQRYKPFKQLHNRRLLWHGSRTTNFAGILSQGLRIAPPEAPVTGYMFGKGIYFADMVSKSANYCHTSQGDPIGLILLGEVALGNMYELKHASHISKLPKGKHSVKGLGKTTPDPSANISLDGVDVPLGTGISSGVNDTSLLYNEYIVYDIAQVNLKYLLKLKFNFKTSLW

[8] = molecular target: Poly [ADP-ribose] polymerase 2 (Homo sapiens, UniProt Q9UGN5); assay: Inhibition of human PARP-2 by ELISA
Poly [ADP-ribose] polymerase 2, sequence (Q9UGN5 whole entry): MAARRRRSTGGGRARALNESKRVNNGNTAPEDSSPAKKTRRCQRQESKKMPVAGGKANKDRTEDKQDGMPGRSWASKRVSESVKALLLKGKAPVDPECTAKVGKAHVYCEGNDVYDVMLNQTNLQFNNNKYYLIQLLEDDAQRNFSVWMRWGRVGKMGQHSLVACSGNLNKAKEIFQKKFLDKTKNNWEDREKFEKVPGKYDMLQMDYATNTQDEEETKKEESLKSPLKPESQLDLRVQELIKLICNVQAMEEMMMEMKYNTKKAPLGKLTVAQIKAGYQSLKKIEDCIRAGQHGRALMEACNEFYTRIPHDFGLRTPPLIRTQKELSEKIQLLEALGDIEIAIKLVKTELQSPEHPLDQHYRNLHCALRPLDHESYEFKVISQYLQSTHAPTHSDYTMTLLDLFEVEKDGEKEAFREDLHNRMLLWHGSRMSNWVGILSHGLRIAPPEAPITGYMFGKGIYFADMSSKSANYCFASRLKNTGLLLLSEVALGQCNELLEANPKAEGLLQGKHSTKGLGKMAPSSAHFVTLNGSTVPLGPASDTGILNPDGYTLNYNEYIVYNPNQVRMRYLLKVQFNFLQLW

Row | SMILES | IC50 (DLD-1) [µM] | IC50 (HCT-116 [1]) [µM] | IC50 (SW480) [µM] | IC50 [7] [µM] | IC50 [8] [µM] | IC50 at 48 h [2] [µM] | selectivity ratio [3] | Activity (HCT-116 [4]) [%] | Activity (HCT-116 [5]) | Activity (HCT-116 [6]) [%]
1 | O=C(c1cc(Cc2n[nH]c(=O)c3ccccc23)ccc1F)N1CCN(C(=O)C2CC2)CC1 [OLAPARIB] | 13.7 | 26.4 | 39.3 |  |  | 319 |  | 16.33 | Active | 83.67
2 | NC(=O)c1ccccc1OCc1cccc(NC(=O)Cc2ccc(Cl)cc2)c1 | 19.6 | 5.86 | 27.4 |  |  | 286 | 48.8 |  |  | 
3 | NC(=O)c1ccccc1OCc1cccc(NC(=O)Cc2cccc(Cl)c2)c1 | 22 | 7.38 | 5.48 |  |  | 72.2 | 9.79 |  |  | 
4 | NC(=O)c1ccccc1NCc1cccc(NC(=O)Cc2ccc(Cl)cc2)c1 | 7.86 | 15.7 | 20.2 |  |  | 14 | 0.9 |  |  | 
5 | NC(=O)c1ccccc1OCc1cccc(NC(=O)Cc2ccccc2Br)c1 | 9.69 | 8.09 | 8.11 |  |  | 183 | 22.6 |  |  | 
6 | NC(=O)c1ccccc1OCc1cccc(NC(=O)Cc2cccc(Br)c2)c1 | 14.9 | 6.33 | 16 |  |  | 91.2 | 14.4 |  |  | 
7 | NC(=O)c1ccccc1OCc1cccc(NC(=O)Cc2ccccc2Cl)c1 | 18.7 | 22.1 | 12.7 |  |  | 98.7 | 4.48 |  |  | 
8 | NC(=O)c1ccccc1OCc1cccc(NC(=O)Nc2cccc(Br)c2)c1 | 13.2 | 8.93 | 25.1 |  |  | 134 | 12.5 |  |  | 
9 | NC(=O)c1ccccc1OCc1cccc(NC(=O)c2cccc(Br)c2)c1 | 64.9 | > 100 | > 100 |  |  | 238 |  |  |  | 
10 | NC(=O)c1ccccc1OCc1cccc(NC(=O)c2ccc(Cl)cc2)c1 | 13 | 0.33 | 33.3 | 0.00128 | 0.00436 | 340 | 1020 |  |  | 
11 | NC(=O)c1ccccc1OCc1cccc(NC(=O)c2cccc(Cl)c2)c1 | 45.5 | 39.6 | > 100 |  |  | 419 | 10.6 |  |  | 
12 | NC(=O)c1ccccc1OCc1cccc(NC(=O)Cc2ccc(Br)cc2)c1 | 18.1 | 4.1 | 30.8 |  |  | 78 | 19 |  |  | 

More lines, main results first:

Row | IC50 (DLD-1) [µM] | IC50 (HCT-116 [1]) [µM] | IC50 (SW480) [µM] | IC50 [7] [µM] | IC50 [8] [µM] | SMILES | IC50 at 48 h [2] [µM] | selectivity ratio [3] | Activity (HCT-116 [4]) [%] | Activity (HCT-116 [5]) | Activity (HCT-116 [6]) [%]
13 | 7.7 | 7.87 | 19.8 |  |  | NC(=O)c1ccccc1NCc1cccc(NC(=O)Nc2cccc(Br)c2)c1 | 154 | 17.9 |  |  | 
14 | 29.4 | 13.8 | 10.7 |  |  | NC(=O)c1ccccc1NCc1cccc(NC(=O)Cc2ccccc2Cl)c1 | 65 | 4.72 |  |  | 
15 | 11.8 | 45.2 | 61.1 |  |  | NC(=O)c1ccccc1NCc1cccc(NC(=O)c2ccc(Cl)cc2)c1 | 563 | 12.5 |  |  | 
16 | 47 | 60.1 | 16.9 |  |  | NC(=O)c1ccccc1OCc1cccc(NC(=O)c2ccccc2Br)c1 | 161 | 2.68 |  |  | 
17 | 11.7 | 20.7 | 14 |  |  | NC(=O)c1ccccc1NCc1cccc(NC(=O)Cc2ccccc2Br)c1 | 69.4 | 3.35 |  |  | 
18 | 45.4 | 26.4 | 62.4 |  |  | NC(=O)c1ccccc1NCc1cccc(NC(=O)c2cccc(Cl)c2)c1 | 200 | 7.58 |  |  | 
19 | 35 | 22.9 | 17.2 |  |  | NC(=O)c1ccccc1NCc1cccc(NC(=O)c2ccccc2Br)c1 | 65.8 | 2.88 |  |  | 
20 | 14 | 19.6 | 8.71 |  |  | NC(=O)c1ccccc1NCc1cccc(NC(=O)Cc2ccc(Br)cc2)c1 | 51.3 | 2.62 |  |  | 
21 | 9.14 | 75.9 | > 100 |  |  | NC(=O)c1ccccc1NCc1cccc(NC(=O)Cc2cccc(Cl)c2)c1 | 77.2 | 1.02 |  |  | 
22 | 22.8 | 23.4 | 8.82 |  |  | NC(=O)c1ccccc1NCc1cccc(NC(=O)Cc2cccc(Br)c2)c1 | 129 | 5.52 |  |  | 
23 | 10 | 5.69 | 5.08 |  |  | NC(=O)c1ccccc1NCc1cccc(NC(=O)c2cccc(Br)c2)c1 | 73.5 | 12.9 |  |  | 
24 | 36.4 | 35.3 | 11.6 |  |  | NC(=O)c1ccccc1OCc1cccc(NC(=O)c2ccccc2Cl)c1 | 131 | 3.72 |  |  | 
25 | 9.14 | 37.8 | 31.7 |  |  | NC(=O)c1ccccc1NCc1cccc(NC(=O)c2ccccc2Cl)c1 | 105 | 2.78 |  |  | 
26 | 44.5 | 37.9 | 37 |  |  | NC(=O)c1ccccc1NCc1cccc(NC(=O)c2ccc(Br)cc2)c1 | 60.2 | 1.59 |  |  | 
